According to patent US20060029546A1, “Materials and methods for identifying anti-schizophrenic agents” (deCODE Genetics, Inc., priority 2004, published 2006):

Experiments:
[1] = system: ErbB4; assay: ErbB4 tyrosine phosphorylation in HEK293 cells (Western blot); assay type: cell-based; settings: for NRG1-induced ErbB4 tyrosine phosphorylation: cells expressing ErbB4 and Fyn, inhibitor 25 nM
Protocol: (§1) To determine whether NRG1-induced activation of ErbB4 leads to Fyn phosphorylation, NRG1 exposure of HEK293 cells stably expressing ErbB4 and Fyn-V5 were activated with 7.2 nM NRG1 (R&D Systems; Minneapolis, Minn.) for 10 minutes and lysed using RIPA buffer. […] There was no change in Fyn Tyr531 phosphorylation. […] Fyn is activated either by dephophorylation of Tyr531 with loss of the SH2 domain interaction, or through displacement of the SH2 domain by a second tyrosine phosphorylated binding partner allowing auto-phosphorylation on the Fyn activation loop residue Tyr420. Alternatively, Fyn can be phosphorylated on Tyr420 and activated directly by a second kinase. Thus, the NRG1-stimulated increase in Fyn Tyr420 phosphorylation may be through stimulation of Fyn auto-phosphorylation, through phosphorylation of Fyn by ErbB4, or through phosphorylation of Fyn by an ErbB4 activated tyrosine kinase other than Fyn.
Thus, NRG1-induced ErbB4 phosphorylation under conditions in which Fyn and related Src-family kinases were inhibited by PP2 (selective Src-family kinase inhibitor described above). […] This may result in the creation of additional SH2 domain docking sites, thus leading to further activation of Fyn as part of a positive feedback mechanism involving NRG1, ErbB4 and Src-family kinases.

[2] = system: Fyn; settings: cited from earlier work
[3] = system: Fyn; assay: Fyn phosphorylation in HEK293 cells stably expressing ErbB4 and Fyn-V5 (Western blot); assay type: cell-based
Protocol: as §1
These alternatives were distinguished by applying PP2 (25 nM; Calbiochem, San Diego, Calif.) a relatively selective Src-family kinase inhibitor, to inhibit Fyn while ErbB4 signaling was stimulated with NRG1. […] Fyn was phosphorylated at a low level on Tyr420 under basal conditions. […] After NRG1 stimulation, an increase in Fyn Tyr420 phosphorylation was seen, even under conditions in which PP2 was used to inhibit p59 Fyn autophosphorylation. […]

[4] = system: NMDA receptor subunit NR2B; assay: NR2B Tyr1472 phosphorylation in mouse hippocampal lysates (Western blot); assay type: in vivo
Protocol: To further characterize components of the NRG1/ErbB4 signaling pathway a-ErbB4 co-immunoprecipitates from mouse brain hippocampus were analyzed. […] Hippocampus tissue was isolated by manual dissection and homogenized in DOC buffer (20 μM ZnCl2, 50 mM Tris pH 9.0, 1% DOC) (1 ml/50 mg of tissue) containing protease and phosphatase inhibitors as above. 25U Benzonase Nuclease per 1 ml of lysate were added to each sample during a 60 minute incubation at 4° C. For SDS-PAGE and Western blot, sample protein content was determined using a BCA Protein Assay Reagent Kit (Pierce, Rockford, Ill.), adjusted to a final concentration of 2 μg/μl total protein in 1×SDS-PAGE sample buffer, and then 20-25 μg of protein was loaded per gel lane. For immunoprecipitation, samples were adjusted to a final concentration of 2 μg/μl total protein in DOC buffer. […]
It was hypothesized that NRG1^+/− and ErbB4^+/− mutant mice might show altered regulation of NMDA receptor subunit NR2B Tyr1472 phosphorylation related to their abnormal behavioral phenotype. Hippocampal lysates were analyzed as described in Example 1. It was determined that Tyr1472 of NR2B was hypo-phosphorylated in hippocampal lysates from 9 month old NRG1^+/− or ErbB4^+/− mutant mice as compared to age and sex matched C57B1/6 control mice (FIG. 3). […]

[5] = system: NRG1+/− mutant mice; assay: Open field test; assay type: in vivo, mouse; settings: single exposure
Protocol: NRG1 hypomorphic mutant mice (NRG1^+/−) are heterozygotic mice that have a mutant NRG1 allele in which the NRG1 exon encoding the transmembrane domain is disrupted in the heterozygote. These mice develop normally and breed well. […] Treatment of the NRG1^+/−mice with a clozapine (1 mg/kg), an atypical antipsychotic drug commonly used to treat schizophrenia, for 25 minutes prior to testing reversed the behavioral abnormality. […] In addition, it is known that the NRG1^+/− had 16% fewer functional NMDA receptors overall as compared to litter-mate controls as determined by MK-801 (NMDA antagonist) binding studies on forebrain homogenates (Steffanson et al., Am. J. Hum. Genet. 72: 83-7, 2003). Therefore, these mice are relevant as an in vivo model for schizophrenia.
Behavioral abnormality of NRG1^+/− mutant mice observed in the open field test is reversible with clozapine at a dose of 1 mg/kg i.p. The activity level of wild-type litter mate controls is not affected by that dose of clozapine. Thus, clozapine is not simply sedating at 1 mg/kg i.p., but has a selective effect on the behavioral abnormality of NRG1^+/− mutant mice. Reversal of the behavioral abnormality occurred rapidly within 25 minutes of a single exposure to clozapine.

| Compound | NRG1 induced tyrosine phosphorylation ([1]; HEK293 cells expressing only ErbB4) | ErbB4 basal phosphorylation ([1]; absence of NRG1) | NRG1-induced ErbB4 tyrosine phosphorylation [1] | IC50 ([2]; read-out: Fyn inhibition IC50) [nM] | basal Fyn Tyr420 phosphorylation ([3]; basal conditions, 24 hour preincubation, 25 nM) | effect on Fyn ([2]; control kinase inhibitor) | Fyn phosphorylation ([3]; control compound) | increase of NR2B Tyr1472 phosphorylation ([4]; NRG1+/− mutant mice, 1 mg/kg i.p., 25 minutes after injection, normalized against total NR2B) | NR2B Tyr1472 phosphorylation ([4]; wild-type mice, same dose) | time to reversal of the behavioral abnormality [5] [min] |
| --- | --- | --- | --- | --- | --- | --- | --- | --- | --- | --- |
| CC(C)(C)n1nc(-c2ccc(Cl)cc2)c2c(N)ncnc21 [PP2] | no effect | no effect | greatly reduced | […] | reduced |  |  |  |  |  |
| Nc1ncnc2c1cnn2-c1ccccc1 [PP3] |  |  | no effect |  |  | no effect on Fyn | no effect |  |  |  |
| CN1CCN(C2=Nc3cc(Cl)ccc3Nc3ccccc32)CC1 [clozapine] |  |  |  |  |  |  |  | 2.5-3 fold | no effect | ≤ 25 |
